Measurements reported in PubChem BioAssay (NCI).
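Results reflect a 48-hour exposure of cells in 96-well plates to compound at five concentrations. The concentration for 50% growth inhibition is given as GI50. TGI denotes the concentration required for complete inhibition of growth.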

Experiments:
Assay in all cases: NCI-60 cell line screen, 48 h
[1] = tested on: 786-0 renal
[2] = tested on: A498 renal
[3] = tested on: A549 NSCLC
[4] = tested on: ACHN renal
[5] = tested on: BT-549 breast
[6] = tested on: CAKI-1 renal
[7] = tested on: CCRF-CEM leukemia
[8] = tested on: COLO 205 colon
[9] = tested on: DU-145 prostate
[10] = tested on: EKVX NSCLC
[11] = tested on: HCC-2998 colon
[12] = tested on: HCT-116 colon
[13] = tested on: HCT-15 colon
[14] = tested on: HL-60(TB) leukemia
[15] = tested on: HOP-62 NSCLC
[16] = tested on: HOP-92 NSCLC
[17] = tested on: HS 578T breast
[18] = tested on: HT29 colon
[19] = tested on: IGROV1 ovarian
[20] = tested on: K-562 leukemia
[21] = tested on: KM12 colon
[22] = tested on: LOX IMVI melanoma
[23] = tested on: M14 melanoma
[24] = tested on: MALME-3M melanoma
[25] = tested on: MCF7 breast
[26] = tested on: MDA-MB-231 breast
[27] = tested on: MOLT-4 leukemia
[28] = tested on: NCI-H226 lung
[29] = tested on: NCI-H23 lung
[30] = tested on: NCI-H460 lung
[31] = tested on: NCI-H522 lung
[32] = tested on: NCI/ADR-RES ovarian
[33] = tested on: OVCAR-3 ovarian
[34] = tested on: OVCAR-4 ovarian
[35] = tested on: OVCAR-5 ovarian
[36] = tested on: OVCAR-8 ovarian
[37] = tested on: PC-3 prostate
[38] = tested on: RPMI-8226 leukemia
[39] = tested on: RXF 393 renal
[40] = tested on: SF-268 CNS
[41] = tested on: SF-295 CNS
[42] = tested on: SF-539 CNS
[43] = tested on: SK-MEL-2 melanoma
[44] = tested on: SK-MEL-28 melanoma
[45] = tested on: SK-MEL-5 melanoma
[46] = tested on: SK-OV-3 ovarian
[47] = tested on: SN12C renal
[48] = tested on: SNB-19 CNS
[49] = tested on: SNB-75 CNS
[50] = tested on: SW-620 colon
[51] = tested on: TK-10 renal
[52] = tested on: U251 CNS
[53] = tested on: UACC-257 melanoma
[54] = tested on: UACC-62 melanoma
[55] = tested on: UO-31 renal
[56] = tested on: MDA-MB-435
[57] = tested on: SR leukemia
[58] = tested on: T-47D breast

SMILES: COc1cc2c(c(OC)c1OC)-c1cc(I)c(O)cc1[C@@H](NC(C)=O)CC2
- GI50 [1]: 0.0614 µM
- TGI [1]: > 100 µM
- GI50 [2]: 0.0459 µM
- TGI [2]: 5.5 µM
- GI50 [3]: 0.0695 µM
- TGI [3]: > 40.1 µM
- GI50 [4]: 0.383 µM
- TGI [4]: > 100 µM
- GI50 [5]: 0.134 µM
- TGI [5]: 2.95 µM
- GI50 [6]: 3.58 µM
- TGI [6]: > 100 µM
- GI50 [7]: 0.0364 µM
- TGI [7]: > 100 µM
- GI50 [8]: 0.0385 µM
- TGI [8]: 0.155 µM
- GI50 [9]: 0.0398 µM
- TGI [9]: 0.292 µM
- GI50 [10]: 0.419 µM
- TGI [10]: > 100 µM
- GI50 [11]: 0.0655 µM
- TGI [11]: 3 µM
- GI50 [12]: 0.0409 µM
- TGI [12]: 19.4 µM
- GI50 [13]: 0.118 µM
- TGI [13]: > 100 µM
- GI50 [14]: 0.0254 µM
- TGI [14]: 0.069 µM
- GI50 [15]: 0.179 µM
- TGI [15]: > 100 µM
- GI50 [16]: 0.0639 µM
- TGI [16]: 10.9 µM
- GI50 [17]: 0.029 µM
- GI50 [18]: 0.036 µM
- TGI [18]: 10.7 µM
- GI50 [19]: 0.137 µM
- TGI [19]: > 31.6 µM
- GI50 [20]: 0.0324 µM
- TGI [20]: > 100 µM
- GI50 [21]: 0.0432 µM
- TGI [21]: 1.36 µM
- GI50 [22]: 0.075 µM
- TGI [22]: > 100 µM
- GI50 [23]: 0.0311 µM
- TGI [23]: 0.0969 µM
- GI50 [24]: > 100 µM
- TGI [24]: > 100 µM
- GI50 [25]: 0.0336 µM
- TGI [25]: > 100 µM
- GI50 [26]: 0.0859 µM
- GI50 [27]: 0.0437 µM
- TGI [27]: > 100 µM
- GI50 [28]: 0.299 µM
- TGI [28]: 99.2 µM
- GI50 [29]: 0.046 µM
- TGI [29]: > 100 µM
- GI50 [30]: 0.0356 µM
- TGI [30]: 4.99 µM
- GI50 [31]: 0.0484 µM
- TGI [31]: > 100 µM
- GI50 [32]: 0.681 µM
- TGI [32]: > 20.3 µM
- GI50 [33]: 0.0258 µM
- TGI [33]: 0.0623 µM
- GI50 [34]: 0.105 µM
- TGI [34]: > 100 µM
- GI50 [35]: 0.237 µM
- TGI [35]: > 100 µM
- GI50 [36]: 0.187 µM
- TGI [36]: > 100 µM
- GI50 [37]: 0.0395 µM
- TGI [37]: > 100 µM
- GI50 [38]: 0.035 µM
- TGI [38]: 2.53 µM
- GI50 [39]: 0.0496 µM
- TGI [39]: > 100 µM
- GI50 [40]: 0.0666 µM
- TGI [40]: 41.1 µM
- GI50 [41]: 0.037 µM
- TGI [41]: > 100 µM
- GI50 [42]: 0.0314 µM
- TGI [42]: 0.178 µM
- GI50 [43]: 23.1 µM
- TGI [43]: > 100 µM
- GI50 [44]: 0.999 µM
- TGI [44]: > 100 µM
- GI50 [45]: 0.0358 µM
- TGI [45]: 0.244 µM
- GI50 [46]: 0.0476 µM
- TGI [46]: > 65.8 µM
- GI50 [47]: 0.106 µM
- TGI [47]: > 100 µM
- GI50 [48]: 0.0679 µM
- TGI [48]: > 100 µM
- GI50 [49]: 0.0332 µM
- TGI [49]: > 92.5 µM
- GI50 [50]: 0.039 µM
- TGI [50]: > 100 µM
- GI50 [51]: > 44.6 µM
- TGI [51]: > 100 µM
- GI50 [52]: 0.0483 µM
- TGI [52]: > 100 µM
- GI50 [53]: 49.1 µM
- TGI [53]: > 100 µM
- GI50 [54]: 0.0448 µM
- TGI [54]: > 100 µM
- GI50 [55]: 0.556 µM

SMILES: Fc1ccccc1CN1COc2c(cc(Cl)c3cccnc23)C1
- TGI [1]: 21.5 µM
- TGI [3]: 10.9 µM
- TGI [4]: 10.3 µM
- TGI [6]: 9.93 µM
- TGI [8]: 28.3 µM
- TGI [9]: 16.4 µM
- TGI [10]: 2.72 µM
- TGI [12]: 13.2 µM
- TGI [13]: 2.23 µM
- TGI [14]: 10.4 µM
- TGI [15]: 16.6 µM
- TGI [16]: 16.8 µM
- TGI [17]: 20.8 µM
- TGI [18]: 20.4 µM
- TGI [19]: 18.6 µM
- TGI [20]: 8.41 µM
- TGI [21]: 12.1 µM
- TGI [23]: 12 µM
- TGI [24]: 12.2 µM
- TGI [25]: 13.7 µM
- TGI [26]: 4.3 µM
- TGI [56]: 8.27 µM
- TGI [27]: 0.758 µM
- TGI [28]: 2.97 µM
- TGI [29]: 9.31 µM
- TGI [30]: > 100 µM
- TGI [31]: 14.1 µM
- TGI [32]: 0.54 µM
- TGI [33]: 19.2 µM
- TGI [34]: 4.88 µM
- TGI [35]: 15.3 µM
- TGI [36]: 10.7 µM
- TGI [37]: 10.6 µM
- TGI [39]: 63.6 µM
- TGI [40]: 20.3 µM
- TGI [41]: 12.1 µM
- TGI [42]: 10.6 µM
- TGI [43]: 19.1 µM
- TGI [44]: 18.7 µM
- TGI [45]: 3.75 µM
- TGI [46]: 19.6 µM
- TGI [47]: 1.57 µM
- TGI [48]: 9.23 µM
- TGI [49]: 14.7 µM
- TGI [57]: 3.85 µM
- TGI [50]: 18.4 µM
- TGI [58]: 18.4 µM
- TGI [51]: 18 µM
- TGI [52]: 12.8 µM
- TGI [53]: 8.73 µM
- TGI [54]: 1.74 µM
- TGI [55]: 17.7 µM

SMILES: CCCS(=O)(=O)Nc1ccc(F)c(C(=O)c2c[nH]c3ncc(-c4ccc(OCCCC5CCCCN5)nc4)cc23)c1F (stereo unspecified)
- GI50 [3]: > 100 µM
- TGI [3]: > 100 µM
- GI50 [4]: 16.9 µM
- TGI [4]: > 100 µM
- GI50 [10]: > 100 µM
- TGI [10]: > 100 µM
- GI50 [11]: > 100 µM
- TGI [11]: > 100 µM
- GI50 [13]: > 100 µM
- TGI [13]: > 100 µM
- GI50 [17]: 0.493 µM
- TGI [17]: 2.82 µM
- GI50 [19]: 0.865 µM
- TGI [19]: > 100 µM
- GI50 [56]: 0.03 µM
- TGI [56]: > 100 µM
- GI50 [32]: > 100 µM
- TGI [32]: > 100 µM
- GI50 [36]: 9.63 µM
- TGI [36]: > 100 µM
- GI50 [41]: 3.97 µM
- TGI [41]: > 100 µM
- GI50 [46]: 0.875 µM
- TGI [46]: > 100 µM
- GI50 [47]: 2.14 µM
- TGI [47]: > 100 µM
- GI50 [58]: 1.28 µM
- TGI [58]: 10.7 µM
- GI50 [51]: 7.79 µM
- TGI [51]: > 100 µM
- GI50 [53]: 0.0136 µM
- TGI [53]: 0.0967 µM
- GI50 [55]: > 100 µM
- TGI [55]: > 100 µM

SMILES: CCCCCCCCCCCC1N=C(N)N=C(N)N1c1cccc(Br)c1 (stereo unspecified)
- GI50 [2]: 2.65 µM
- TGI [2]: 11.3 µM
- GI50 [4]: 2.52 µM
- TGI [4]: 7.05 µM
- GI50 [6]: 1.8 µM
- TGI [6]: 4.12 µM
- GI50 [9]: 1.16 µM
- TGI [9]: 2.42 µM
- GI50 [10]: 1.05 µM
- TGI [10]: 2.44 µM
- GI50 [11]: 1.16 µM
- TGI [11]: 2.42 µM
- GI50 [12]: 0.216 µM
- TGI [12]: 1.5 µM
- GI50 [13]: 5.2 µM
- TGI [13]: 26.3 µM
- GI50 [16]: 1.51 µM
- TGI [16]: 4.34 µM
- GI50 [17]: 2.08 µM
- TGI [17]: 4.77 µM
- GI50 [18]: 0.412 µM
- TGI [18]: 1.71 µM
- GI50 [19]: 1.14 µM
- TGI [19]: 2.58 µM
- GI50 [24]: 1.77 µM
- TGI [24]: 3.38 µM
- GI50 [56]: 0.523 µM
- TGI [56]: 1.79 µM
- GI50 [29]: 1.18 µM
- TGI [29]: 2.69 µM
- GI50 [30]: 0.0779 µM
- TGI [30]: 1.65 µM
- GI50 [31]: 1.51 µM
- TGI [31]: 2.95 µM
- GI50 [32]: 14.6 µM
- TGI [32]: 39.6 µM
- GI50 [35]: 0.811 µM
- TGI [35]: 2.22 µM
- GI50 [36]: 1.73 µM
- TGI [36]: 3.31 µM
- GI50 [38]: 1.68 µM
- TGI [38]: 4.21 µM
- GI50 [40]: 1.28 µM
- TGI [40]: 2.7 µM
- GI50 [41]: 1.16 µM
- TGI [41]: 19.4 µM
- GI50 [43]: 1.55 µM
- TGI [43]: 2.99 µM
- GI50 [46]: 1.92 µM
- TGI [46]: 4.28 µM
- GI50 [50]: 0.837 µM
- TGI [50]: 2.26 µM
- GI50 [51]: 1.56 µM
- TGI [51]: 2.94 µM
- GI50 [52]: 0.631 µM
- TGI [52]: 1.98 µM
- GI50 [55]: 4.89 µM
- TGI [55]: 13 µM
